{"source": "patent US20250270200A1", "about": "“CTPS1 INHIBITORS AND USES THEREOF” (Nimbus Clotho, Inc., priority 2022, published 2025)", "biological_target": "T1, human CTPS1 (Homo sapiens, UniProt P17812)", "T1 sequence (P17812 1-591)": "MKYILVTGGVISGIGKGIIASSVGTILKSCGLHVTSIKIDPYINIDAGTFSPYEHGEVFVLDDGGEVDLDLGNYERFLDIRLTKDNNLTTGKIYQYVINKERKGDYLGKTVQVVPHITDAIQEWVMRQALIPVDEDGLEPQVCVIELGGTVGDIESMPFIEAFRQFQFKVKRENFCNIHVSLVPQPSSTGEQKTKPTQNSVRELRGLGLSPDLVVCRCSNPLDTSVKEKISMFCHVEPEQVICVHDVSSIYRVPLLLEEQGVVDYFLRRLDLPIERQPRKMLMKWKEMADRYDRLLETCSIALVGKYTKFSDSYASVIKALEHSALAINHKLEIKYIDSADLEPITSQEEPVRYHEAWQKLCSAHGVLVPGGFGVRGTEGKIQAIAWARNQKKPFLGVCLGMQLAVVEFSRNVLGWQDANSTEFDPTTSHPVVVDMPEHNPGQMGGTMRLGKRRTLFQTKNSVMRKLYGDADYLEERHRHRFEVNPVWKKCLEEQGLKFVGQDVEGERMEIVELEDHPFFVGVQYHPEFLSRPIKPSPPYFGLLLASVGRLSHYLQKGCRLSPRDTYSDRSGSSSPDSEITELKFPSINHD", "assay": "ADP-Glo assay, human CTPS1 enzyme inhibition", "type": "biochemical", "conditions": "read-out: ADP-Glo_WT_hCTPS1—25 nM_IC50 (IC50)", "in_short": "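Full-length tagged human CTPS1 (25 nM) pre-incubated 10 min at 25° C with compound, then 10 min with ATP (120 μM) and UTP (160 μM); reaction started with L-glutamine (100 μM) and GTP (60 μM), 1% DMSO, in HEPES pH 7.4, 10 mM Mg2+, 5 mM KCl, 2 mM DTT. Run within linear phase at 25° C; ADP measured by ADP-Glo luminescence.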", "key": {"[1]": {"conditions": "wild-type human CTPS1, 25 nM enzyme, ADP-Glo"}, "[2]": {"conditions": "wild-type human CTPS1 25 nM, ATP 120 μM, UTP 160 μM, GTP 60 μM, L-glutamine 100 μM, 25 degrees C."}}, "note": "Counter-ions that a name gives are not always drawn. Like-named read-outs stand apart in the source and are kept apart here.", "data": [{"molecule": "CCOc1cncc(-c2cnc(C(=O)N[C@@H](C[C@@H]3COCCN3C)c3cccc(NS(=O)(=O)C(F)F)c3)s2)n1", "note": "[I-191, N-((S)-1-(3-((difluoromethyl)sulfonamido)phenyl)-2-((R)-4-methylmorpholin-3-yl)ethyl)-5-(6-ethoxypyrazin-2-yl)thiazole-2-carboxamide]", "values": [{"measurement": "IC50", "setting": "[1]", "result": "25 to 50", "unit": "nM"}]}, {"molecule": "CCOc1cncc(-c2cnc(C(=O)N[C@@H](CN3C[C@H]4C[C@@H]3CO4)c3cncc(NS(=O)(=O)C4CC4)n3)s2)n1", "note": "[I-252, N-((S)-2-((1R,4R)-2-oxa-5-azabicyclo[2.2.1]heptan-5-yl)-1-(6-(cyclopropanesulfonamido)pyrazin-2-yl)ethyl)-5-(6-ethoxypyrazin-2-yl)thiazole-2-carboxamide, formic acid salt]", "values": [{"measurement": "IC50", "setting": "[1]", "result": "25 to 50", "unit": "nM"}]}, {"molecule": "O=C(N[C@H](c1nccc(NS(=O)(=O)C2CC2)c1F)[C@@H]1CCOC1)c1ncc(-c2cnn3ccc(Cl)cc23)s1", "note": "(single isomer, unassigned) [II-6]", "values": [{"measurement": "IC50", "setting": "[2]", "result": "5 to 25", "unit": "nM"}]}, {"molecule": "COCC[C@@H](NC(=O)c1ncc(-c2cnn3ccc(Cl)cc23)s1)c1cc(NS(=O)(=O)C2CC2)ccn1", "note": "(single isomer, unassigned) [I-2]", "values": [{"measurement": "IC50", "setting": "[1]", "result": "5 to 25", "unit": "nM"}]}, {"molecule": "CCOc1cncc(-c2cnc(C(=O)N[C@@H](c3cc(NS(=O)(=O)C4CC4)ccn3)[C@@H]3CCCO3)s2)n1", "note": "[I-61, N-((S)-(4-(cyclopropanesulfonamido)pyridin-2-yl)((S)-tetrahydrofuran-2-yl)methyl)-5-(6-ethoxypyrazin-2-yl)thiazole-2-carboxamide]", "values": [{"measurement": "IC50", "setting": "[1]", "result": "5 to 25", "unit": "nM"}]}, {"molecule": "CCOc1cncc(-c2cnc(C(=O)N[C@@H](CN3C[C@H]4CC[C@@H]3C4)c3cc(NS(=O)(=O)C4CC4)ccn3)s2)n1", "note": "[I-149, N-((S)-2-((1R,4S)-2-azabicyclo[2.2.1]heptan-2-yl)-1-(4-(cyclopropanesulfonamido)pyridin-2-yl)ethyl)-5-(6-ethoxypyrazin-2-yl)thiazole-2-carboxamide]", "values": [{"measurement": "IC50", "setting": "[1]", "result": "50 to 100", "unit": "nM"}]}, {"molecule": "CCOc1cncc(-c2cnc(C(=O)N[C@@H](c3cccc(NS(=O)(=O)C(F)F)c3)[C@H](C)CN3CCCCC3)s2)n1", "note": "(single isomer, unassigned) [II-12]", "values": [{"measurement": "IC50", "setting": "[2]", "result": "5 to 25", "unit": "nM"}]}, {"molecule": "CCOc1cncc(-c2cnc(C(=O)N[C@@H](C)c3cc(NS(=O)(=O)C4CC4)ccn3)s2)n1", "note": "[I-177, (S)-N-(1-(4-(cyclopropanesulfonamido)pyridin-2-yl)ethyl)-5-(6-ethoxypyrazin-2-yl)thiazole-2-carboxamide]", "values": [{"measurement": "IC50", "setting": "[1]", "result": "5 to 25", "unit": "nM"}]}, {"molecule": "CCOc1cncc(-c2cnc(C(=O)N[C@H](COC)c3ccnc(NS(=O)(=O)C4CC4)n3)s2)n1", "note": "[I-268, (S)-N-(1-(2-(cyclopropanesulfonamido)pyrimidin-4-yl)-2-methoxyethyl)-5-(6-ethoxypyrazin-2-yl)thiazole-2-carboxamide]", "values": [{"measurement": "IC50", "setting": "[1]", "result": "25 to 50", "unit": "nM"}]}, {"molecule": "O=C(N[C@H](c1cc(NS(=O)(=O)C2CC2)ccn1)[C@H]1CCOC1)c1ncc(-c2cnn3ccc(Cl)cc23)s1", "note": "(single isomer, unassigned) [I-22]", "values": [{"measurement": "IC50", "setting": "[1]", "result": "5 to 25", "unit": "nM"}]}, {"molecule": "CCOc1cncc(-c2cnc(C(=O)N[C@H](CN3CC[C@@](C)(O)C3)c3cc(NS(=O)(=O)C4CC4)ccn3)s2)n1", "note": "[I-132, N-((R)-1-(4-(cyclopropanesulfonamido)pyridin-2-yl)-2-((R)-3-hydroxy-3-methylpyrrolidin-1-yl)ethyl)-5-(6-ethoxypyrazin-2-yl)thiazole-2-carboxamide]", "values": [{"measurement": "IC50", "setting": "[1]", "result": "5 to 25", "unit": "nM"}]}, {"molecule": "CCOc1cncc(-c2cnc(C(=O)N[C@H](CC3COCCN3C)c3cccc(NS(=O)(=O)C(F)F)c3)s2)n1", "note": "(stereo partly drawn) [I-193, N-((1R)-1-(3-((difluoromethyl)sulfonamido)phenyl)-2-(4-methylmorpholin-3-yl)ethyl)-5-(6-ethoxypyrazin-2-yl)thiazole-2-carboxamide]", "values": [{"measurement": "IC50", "setting": "[1]", "result": "50 to 100", "unit": "nM"}]}, {"molecule": "CCOc1cncc(-c2cnc(C(=O)N[C@@H](COC)c3cc(NS(=O)(=O)C4CC4)ncn3)s2)n1", "note": "(single isomer, unassigned) [II-7]", "values": [{"measurement": "IC50", "setting": "[2]", "result": "5 to 25", "unit": "nM"}]}, {"molecule": "CCOc1cncc(-c2cnc(C(=O)N[C@@H](COC)c3nccc(NS(=O)(=O)C4CC4)c3F)s2)n1", "note": "(single isomer, unassigned) [I-11]", "values": [{"measurement": "IC50", "setting": "[1]", "result": "5 to 25", "unit": "nM"}]}, {"molecule": "CCOc1cncc(-c2cnc(C(=O)N[C@@H](c3cc(NS(=O)(=O)C4CC4)ncn3)C3CCOCC3)s2)n1", "note": "(single isomer, unassigned) [I-255]", "values": [{"measurement": "IC50", "setting": "[1]", "result": "5 to 25", "unit": "nM"}]}, {"molecule": "CCOc1cncc(-c2cnc(C(=O)N[C@H](CN3CC[C@](C)(O)C3)c3cc(NS(=O)(=O)C4CC4)ccn3)s2)n1", "note": "[I-131, N-((R)-1-(4-(cyclopropanesulfonamido)pyridin-2-yl)-2-((S)-3-hydroxy-3-methylpyrrolidin-1-yl)ethyl)-5-(6-ethoxypyrazin-2-yl)thiazole-2-carboxamide]", "values": [{"measurement": "IC50", "setting": "[1]", "result": "5 to 25", "unit": "nM"}]}, {"molecule": "CCOc1cncc(-c2cnc(C(=O)N[C@@H](CN3CC[C@](C)(O)C3)c3cccc(NS(=O)(=O)C(F)F)c3)s2)n1", "note": "[I-209, N-((R)-1-(3-((difluoromethyl)sulfonamido)phenyl)-2-((S)-3-hydroxy-3-methylpyrrolidin-1-yl)ethyl)-5-(6-ethoxypyrazin-2-yl)thiazole-2-carboxamide, formic acid salt]", "values": [{"measurement": "IC50", "setting": "[1]", "result": "5 to 25", "unit": "nM"}]}, {"molecule": "O=C(N[C@@H](c1cccc(NS(=O)(=O)C(F)F)c1)C1CCOCC1)c1ncc(-c2cnn3ccc(Cl)cc23)s1", "note": "[I-197, (R)-5-(5-chloropyrazolo[1,5-a]pyridin-3-yl)-N-((3-((difluoromethyl)sulfonamido)phenyl)(tetrahydro-2H-pyran-4-yl)methyl)thiazole-2-carboxamide]", "values": [{"measurement": "IC50", "setting": "[1]", "result": "5 to 25", "unit": "nM"}]}, {"molecule": "COCC[C@H](NC(=O)c1ncc(-c2cnn3ccc(Cl)cc23)s1)c1cc(NS(=O)(=O)C2CC2)ccn1", "note": "(single isomer, unassigned) [I-1]", "values": [{"measurement": "IC50", "setting": "[1]", "result": "5 to 25", "unit": "nM"}]}, {"molecule": "O=C(N[C@@H](c1cc(NS(=O)(=O)C2CC2)ccn1)C1CCOCC1)c1nnc(-c2cnn3ccc(Cl)cc23)s1", "note": "(single isomer, unassigned) [II-16]", "values": [{"measurement": "IC50", "setting": "[2]", "result": "5 to 25", "unit": "nM"}]}, {"molecule": "CCOc1cncc(-c2cnc(C(=O)N[C@@H](CO[C@@H]3CCOC3)c3cc(NS(=O)(=O)C4CC4)ccn3)s2)n1", "note": "[I-239, N-((R)-1-(4-(cyclopropanesulfonamido)pyridin-2-yl)-2-(((R)-tetrahydrofuran-3-yl)oxy)ethyl)-5-(6-ethoxypyrazin-2-yl)thiazole-2-carboxamide]", "values": [{"measurement": "IC50", "setting": "[1]", "result": "5 to 25", "unit": "nM"}]}, {"molecule": "CCOc1cncc(-c2ccc(C(=O)N[C@H](c3cc(NS(=O)(=O)C4CC4)ccn3)[C@H]3CCCO3)nc2)n1", "note": "[I-67, N-((R)-(4-(cyclopropanesulfonamido)pyridin-2-yl)((R)-tetrahydrofuran-2-yl)methyl)-5-(6-ethoxypyrazin-2-yl)picolinamide]", "values": [{"measurement": "IC50", "setting": "[1]", "result": "25 to 50", "unit": "nM"}]}, {"molecule": "CCOc1cncc(-c2cnc(C(=O)N[C@@H](c3cccc(NS(=O)(=O)C(F)F)c3)[C@@H](C)CN3CCCCC3)s2)n1", "note": "(single isomer, unassigned) [II-11]", "values": [{"measurement": "IC50", "setting": "[2]", "result": "25 to 50", "unit": "nM"}]}, {"molecule": "CCOc1cncc(-c2cnc(C(=O)N[C@H](CF)c3cc(NS(=O)(=O)C4CC4)ccn3)s2)n1", "note": "[I-161, (S)-N-(1-(4-(cyclopropanesulfonamido)pyridin-2-yl)-2-fluoroethyl)-5-(6-ethoxypyrazin-2-yl)thiazole-2-carboxamide]", "values": [{"measurement": "IC50", "setting": "[1]", "result": "≤ 5", "unit": "nM"}]}, {"molecule": "CCOc1cncc(-c2cnc(C(=O)N[C@H](c3cc(NS(=O)(=O)C4CC4)ccn3)[C@@H](C)N3C[C@H]4C[C@@H]3CO4)s2)n1", "note": "[I-167, N-((1S,2R)-2-((1R,4R)-2-oxa-5-azabicyclo[2.2.1]heptan-5-yl)-1-(4-(cyclopropanesulfonamido)pyridin-2-yl)propyl)-5-(6-ethoxypyrazin-2-yl)thiazole-2-carboxamide]", "values": [{"measurement": "IC50", "setting": "[1]", "result": "25 to 50", "unit": "nM"}]}, {"molecule": "CCOc1cncc(-c2cnc(C(=O)N[C@@H](C[C@H]3COCCN3C)c3cccc(NS(=O)(=O)C(F)F)c3)s2)n1", "note": "[I-192, N-((S)-1-(3-((difluoromethyl)sulfonamido)phenyl)-2-((S)-4-methylmorpholin-3-yl)ethyl)-5-(6-ethoxypyrazin-2-yl)thiazole-2-carboxamide]", "values": [{"measurement": "IC50", "setting": "[1]", "result": "5 to 25", "unit": "nM"}]}, {"molecule": "CCOc1cncc(-c2cnc(C(=O)NC(C[C@@H]3COCCN3C)c3cc(NS(=O)(=O)C4CC4)ccn3)s2)n1", "note": "(single isomer, unassigned) [I-103]", "values": [{"measurement": "IC50", "setting": "[1]", "result": "> 100", "unit": "nM"}]}]}
